# Data: US9980986B2, “Methods of producing pancreatic hormones” (ViaCyte, Inc., priority 2006, dated 2018)
# B1: noggin: recombinant human Noggin (protein, UniProt Q13253 28-232, looked up)
# Noggin: QHYLHIRPAPSDNLPLVDLIEHPDPIFDPKEKDLNETLLRSLLGGHYDPGFMATSPPEDRPGGGGGAAGGAEDLAELDQLLRQRPSGAMPSEIKGLEFSEGLAQGKKQRLSKKLRRKLQMWLWSQTFCPVLYAWNDLGSRFWPRYVKVGSCFSKRSCSVPEGMVCKPSKSVHLTVLRWRCQRRGGQRCGWIPIQYPIISECKCSC
# B2: activin A: growth factor of the TGFβ superfamily (protein, UniProt P08476 311-426, looked up)
# Inhibin beta A chain: GLECDGKVNICCKKQFFVSFKDIGWNDWIIAPSGYHANYCEGECPSHIAGTSGSSLSFHSTVINHYRMRGHSPFANLKSCCVPTKLRPMSMLYYDDGQNIIKKDIQNMIVEECGCS
# How the values were obtained:
# Format in all cases: cell-based
# [1] = test system: Human embryonic stem cells; experiment: hESC 16-day 4-step or 5-step differentiation time course, real-time quantitative PCR
# Method: Human embryonic stem cells were differentiated for 16 days via either a 4-step or 5-step protocol to achieve islet hormone-expressing cells. The first step comprised 3 days differentiation in activin A (100 ng/mL) to robustly produce DE (D'Amour, K., et al., Nature Biotechnology 23, 1534-1541, (2005)). Step 2 comprised 3 days differentiation in RPMI with 2% FBS containing FGF10 (50 ng/mL) and KAAD-cyclopamine (0.2 μM). In the 4-step protocol, step 3 comprised 4 days differentiation in CMRL with B27 supplement (1:100) containing FGF10 (50 ng/mL), KAAD-cyclopamine (0.2 μM), retinoic acid (2 μM), and DAPT (1 μM). In the 5-step protocol, this 4 day period was broken into two separate treatments in the same base media. For 2 days the media contained FGF10 (50 ng/mL), KAAD-cyclopamine (0.2 μM), and retinoic acid (2 μM). During the subsequent 2 days, the FGF10 was removed and the gamma-secretase inhibitor DAPT (1 μM) was added. The last step of both protocols comprised 6 days differentiation in DMEM with B27 supplement (1:100) containing nicotinamide (10 mM), exendin 4 (40 ng/mL), hepatocyte growth factor (HGF 25 ng/mL), and insulin-like growth factor (IGF)-1 (50 ng/mL). Duplicate samples were taken from each plate at multiple time points and gene expression was analyzed by real-time quantitative PCR.
# [2] = test system: Human embryonic stem cells; experiment: hESC 19-day 5-step differentiation with varying DAPT concentrations, real-time quantitative PCR; settings: DAPT 0, 1, 3 or 10 μM for 2 days in step 4
# Method: Human embryonic stem cells were differentiated for 19 days via a 5-step protocol to achieve islet hormone-expressing cells. The first step comprised 5 days differentiation in activin A (100 ng/mL) to robustly produce DE (D'Amour, K., et al., Nature Biotechnology 23, 1534-1541, (2005)). Step 2 comprised 2 days differentiation in RPMI with 2% FBS containing FGF10 (50 ng/mL) and KAAD-cyclopamine (0.5 μM). Step 3 comprised 4 days differentiation in CMRL with B27 supplement (1:100) containing FGF10 (50 ng/mL), KAAD-cyclopamine (0.2 μM), and retinoic acid (1 μM). The fourth step comprised 2 days treatment with CMRL with B27 supplement (1:100) containing exendin 4 (40 ng/mL) and with varying concentrations of the gamma secretase inhibitor DAPT (0 μM, 1 μM, 3 μM, or 10 μM). The last step comprised 6 days differentiation in DMEM with B27 supplement (1:100) containing nicotinamide (10 mM), exendin 4 (40 ng/mL), and insulin-like growth factor (IGF)-1 (50 ng/mL). Duplicate samples were taken from each plate and gene expression was analyzed by real-time quantitative PCR.
# [3] = test system: Human embryonic stem cell lines; experiment: hESC differentiation by 5-step 17-day protocol (treatments i-iv), gene expression by real-time quantitative PCR; settings: KAAD-cyclopamine maintained in the presence of retinoic acid during step 3
# Method: Human embryonic stem cell lines were differentiated for 17 days via a 5-step protocol to produce pancreatic islet hormone-expressing cells. […] Step 2 comprised 3 days differentiation in RPMI with 2% FBS containing one of the following: (a) 100 ng/mL activin A (treatment i), (b) no exogenous growth factors (treatment ii), or (c) 50 ng/mL FGF10 and 0.5 μM KAAD-cyclopamine (treatments iii and iv). Step 3 comprised 3 days differentiation in CMRL with B27 supplement (1:100) containing either (a) 2 μM retinoic acid (treatments i-iii) or (b) 2 μM retinoic acid and 0.5 μM KAAD-cyclopamine (treatment iv). Steps 4 and 5 were the same for all conditions (treatments i-iv). Step 4 comprised 2 days differentiation in CMRL with B27 supplement (1:100) containing 1 μM DAPT and 40 ng/mL exendin 4. Step 5 comprised 5 days differentiation in CMRL with B27 supplement (1:100) containing 40 ng/mL exendin 4. Duplicate samples were taken from each plate at multiple time points and gene expression was analyzed by real-time quantitative PCR.
# [4] = test system: Human embryonic stem cells; experiment: hESC 17-day 4-step differentiation with or without retinoic acid, real-time quantitative PCR; settings: retinoic acid about 0.1-5 μM for at least about 1 day
# Method: Human embryonic stem cells were differentiated for 17 days via a 4-step protocol to achieve islet hormone-expressing cells. The first step comprised 5 days differentiation in activin A (100 ng/mL) to robustly produce DE (D'Amour, K., et al., Nature Biotechnology 23, 1534-1541, (2005)). Step 2 comprised 2 days differentiation in RPMI with 2% FBS containing FGF10 (50 ng/mL) and KAAD-cyclopamine (1 μM) followed by 2 more days that also contained DAPT (1 μM). Step 3 comprised 5 days differentiation in CMRL with B27 supplement (1:100) containing FGF10 (50 ng/mL), KAAD-cyclopamine (1 μM), DAPT (1 μM) and either with or without the addition of retinoic acid (1 μM). The fourth step comprised 4 days differentiation in CMRL with B27 supplement (1:100) containing nicotinamide (10 mM), exendin 4 (50 ng/mL), hepatocyte growth factor (HGF 25 ng/mL), and insulin-like growth factor (IGF)-1 (50 ng/mL). Duplicate samples were taken from each plate at multiple time points and gene expression was analyzed by real-time quantitative PCR.
# Human ESCs [5] = experiment: hESC differentiation to insulin-expressing cells using noggin without exogenous retinoids, real-time PCR
# Method: Human ESCs were differentiated to definitive endoderm cells via treatment with activin A (100 ng/ml) and Wnt3a (25 ng/ml) in RPMI+0% FBS for the first day and then for 2 more days with activin A (100 ng/ml) alone in RPMI+0.2% v/v FBS. Definitive endoderm was differentiated to foregut endoderm by treatment with KGF (50 ng/ml) and KAAD-cyclopamine (0.25 μM) for 3 days in RPMI+2% v/v FBS. Differentiation then proceeded in DMEM+1% v/v B27 supplement containing KGF (50 ng/ml) and KAAD-cyclopamine (0.25 μM) for one day followed by 5 additional days of the same with or without the addition of noggin (100 ng/ml). The B27 supplement used was either with (B27+) or without (B27-) vitamin A. On days 13, 14 and 15 of differentiation, the KGF was removed but the KAAD-cyclopamine (0.25 μM) and noggin (when used) remained in the culture medium. The differentiation medium for days 16-19 consisted of CMRL+1% v/v B27 (with or without vitamin A as in previous conditions) with no additional factors. Cultures were sampled in duplicate on days 3, 6, 9, 12, 15 and 19 of differentiation and analyzed for expression of pancreatic markers using real-time PCR.
# [6] = test system: Human embryonic stem cells; experiment: PDX1 protein and mRNA expression under different media conditions; settings: insulin about 0.2-20 μg/ml or insulin-like growth factor about 10-500 ng/ml
# Method: Human embryonic stem cells were differentiated in RPMI medium containing activin A (100 ng/ml) for 5 days. The FBS concentrations changed from 0% for the first 24 hours followed by 0.2% for the next 24 hrs and then to 2% for the remaining 3 days. During the next 4 days, the plates were subjected to different media conditions. They were either incubated in i) RPMI with 2% FBS and activin A (100 ng/ml), ii) RPMI with 2% FBS, activin A (25 ng/ml) and retinoic acid, iii) CMRL with 0.2% FBS and B27 supplement (1:100), activin A (25 ng/ml) and retinoic acid, and iv) CMRL with 0.2% FBS and B27 supplement (1:100), activin A (25 ng/ml), retinoic acid and exendin (40 ng/ml). The concentration of retinoic acid changed from 2 μM for 48 hours followed by 1 μM for 24 hours to 0.2 μM for the last 24 hours. The cells were harvested for protein and mRNA analyses on days 7, 8 and 9.
# Without sufficient insulin signaling, PDX1 mRNA was expressed without significant translation into PDX1 protein (FIGS. 4A-4B). The base medium can be RPMI, CMRL, OptiMEM or DMEM with or without 2% FBS. If the base medium is supplemented with sufficient insulin/IGF and FGF10, PDX1 protein will be expressed.
# Human ESCs [7] = experiment: hESC differentiation using combination of noggin and retinoic acid, QPCR
# Method: Human ESCs were differentiated to definitive endoderm via treatment with activin A (100 ng/ml) and Wnt3a (25 ng/ml) in RPMI+0% FBS for the first day and then for 2 more days with activin A (100 ng/ml) alone in RPMI+0.2% v/v FBS. Definitive endoderm was differentiated to foregut endoderm by treatment with KGF (50 ng/ml) and KAAD-cyclopamine (0.25 μM) for 3 days in RPMI+2% v/v FBS. Differentiation then proceeded for 3 days in DMEM+1% v/v B27 supplement containing KAAD-cyclopamine (0.25 μM) and all-trans retinoic acid (0.1 μM or 2 μM) with or without the addition of noggin (0, 30 or 100 ng/ml). This was followed by a 2 day treatment period with the gamma-secretase inhibitor DAPT (1 μM) provided in DMEM+1% v/v B27 and subsequently the cells were cultured in CMRL+1% v/v B27 with no additional growth factors.
# [8] = test system: Human embryonic stem cells; experiment: hESC 21-day 4-step differentiation with three step-1 conditions, real-time quantitative PCR; settings: activin A 100 ng/ml, or follistatin 50 ng/ml and noggin 100 ng/ml
# Method: Human embryonic stem cells were differentiated for 21 days via a 4-step protocol to achieve islet hormone-expressing cells. Three different conditions were used for the first step after which all plates received the identical treatment. The first step comprised 5 days differentiation under one of the following conditions: i) activin A (100 ng/ml) to robustly produce DE (D'Amour, K., et al., Nature Biotechnology 23, 1534-1541, (2005)), ii) 2% FBS with no exogenous growth factors, thereby producing mesoderm and extraembryonic endoderm, or iii) follistatin (50 ng/ml) and noggin (100 ng/ml), thereby producing neural ectoderm. Step 2 comprised 3 days differentiation in RPMI with 2% FBS containing FGF10 (50 ng/mL) and KAAD-cyclopamine (1 μM). Step 3 comprised 5 days differentiation in CMRL with B27 supplement (1:100) containing FGF10 (50 ng/mL), KAAD-cyclopamine (1 μM), retinoic acid (2 μM), and DAPT (1 μM). The fourth step consisted of 8 days differentiation in DMEM with B27 supplement (1:100) containing nicotinamide (10 mM), exendin 4 (40 ng/mL), hepatocyte growth factor (HGF-25 ng/mL), and insulin-like growth factor (IGF)-1 (50 ng/mL). Duplicate samples were taken from each plate at multiple time points and gene expression was analyzed by real-time quantitative PCR.
# [9] = noggin 100 ng/ml, B27 with or without vitamin A
molecule,measurement,setting,value
"C[C@H](NC(=O)Cc1cc(F)cc(F)c1)C(=O)N[C@H](C(=O)OC(C)(C)C)c1ccccc1 [DAPT, N—[N-(3,5-difluorophenacetyl)-L-alanyl]-S-phenylglycine t-butyl ester]",Effect on NGN3 and PAX4 expression,[1]; 2-4 day application of DAPT in terminal days of RA addition or after RA withdrawal,transient induction of NGN3 and PAX4 expression
same,Effect on expression of pancreatic hormones and transcription factors after 19 days,[2],"very little to no insulin, glucagon, somatostatin or principal pancreatic transcription factors were produced in the absence of DAPT"
CC1=C2C[C@H]3[C@@H](CC=C4CC(=O)CC[C@@]43C)[C@@H]2CC[C@]12O[C@@H]1C[C@H](C)CN(CCNC(=O)CCCCCNC(=O)CCc3ccccc3)[C@H]1[C@H]2C [KAAD-cyclopamine],Increase of performance of endocrine differentiation relative to treatment iii,[3],2 fold
"CC1=C(/C=C/C(C)=C/C=C/C(C)=C/C(=O)O)C(C)(C)CCC1 [retinoic acid, all-trans retinoic acid]",Effect on HNF6 and PDX1 expression,[1]; retinoic acid 2 μM in step 3,robustly increased expression of HNF6 and PDX1
same,Effect on insulin expression,[4],insulin was not expressed unless retinoic acid was applied
"CC1=C(/C=C/C(C)=C/C=C/C(C)=C/CO)C(C)(C)CCC1 [vitamin A, retinol, reference compound]",Magnitude of pancreatic hormone expression,Human ESCs [5]; B27 supplement with versus without vitamin A,enhanced by the presence of vitamin A
insulin-like growth factor,Effect on PDX1 protein expression,[6],promotes the expression of PDX1 protein
insulin: insulin as medium supplement,Effect on PDX1 protein expression,[6],promotes the expression of PDX1 protein
B1,"Expression of pancreatic hormones INS, GCG, SST and GHRL",Human ESCs [5]; noggin 100 ng/ml,also dependent on the presence of noggin
same,Induction of PDX1 gene expression,Human ESCs [5]; [9],not dependent on either noggin treatment
same,NGN3 expression induced at day 12 (pancreatic endocrine differentiation),Human ESCs [5]; [9],highly dependent on the presence of noggin
same,Expression levels of PDX1 at days 9 or 11,"Human ESCs [7]; noggin 0, 30 or 100 ng/ml with retinoic acid 0.1 μM or 2 μM",very little effect
same,Expression of NGN3 at day 9,Human ESCs [7]; noggin added to low dose RA (0.1 μM),dramatically enhanced
B2,Lineage marker expression at 5 days of differentiation (step 1),[8],robust production of definitive endoderm
